# Experimental data: patent publication US10292390B2, “Inhibition and dispersion of bacterial biofilms with 2-aminobenzimidazole derivatives” (WISCONSIN ALUMNI RESEARCH FOUNDATION, priority 2011, dated 2019)
# “Also recorded” adds a separate entry of the source.
# How the values were obtained:
# Type in all cases: cell-based, Pseudomonas aeruginosa
# P. aeruginosa growth = assay: bacterial growth over time (OD600); details: prior to 12 h; at concentrations as low as 10 μM; diminish by 12 h
# Procedure: The effects of compounds 7 and 21 on P. aeruginosa growth were evaluated by monitoring the OD600 as a function of time. Microtiter plates were prepared similar to biofilm dose-response analyses such that final well concentrations upon inoculum addition ranged from 10^x μM where x=3.5, 3, 2.5, 2, 1.5, 1, 0, −1, or −2. Compounds 7 and 21 were tested in replicates of 3 wells, and the OD600 was measured every 1-2 h for 24 h.
# [1] = system: LasR activity, P. aeruginosa PAO1/plasI-LVAgfp; assay: Las QS reporter assay (GFP fluorescence); details: for LasR activity: at 1-10× IC50 values for biofilm inhibition; for inhibition of Las-QS system: fluorescence dose curves, 12 and 24 h
# Procedure: As introduced above, the role of QS in biofilm formation is well documented and therefore the abilities of 7 and 21 to inhibit QS in P. aeruginosa were evaluated. For this purpose, two wild-type P. aeruginosa QS reporter strains were prepared that contain the plasmids plasI-LVAgfp and prhII-LVAgfp. (see: The Examples) These strains report the activity of two intracellular QS receptors in P. aeruginosa (LasR and RhlR) by the production of green fluorescent protein (gfp), allowing for LasR and RhlR activities, and thus QS levels, to be quantified by fluorescence. […] Studies of related 2-ABI derivatives have shown that this class of molecules is bacterial cell permeable, allowing us to surmise that 7 and 21 could act on the Las and Rhl systems intracellularly. […] The precise targets of 7 and 21 that result in QS disruption are not yet known.
# To evaluate the activity of compounds 7 and 21 on QS in P. aeruginosa, we prepared two P. aeruginosa QS reporter strains: PAO1/plasI-LVAgfp and PAO1/prhII-LVAgfp. These strains contain the reporter plasmids plasI-LVAgfp and prhII-LVAgfp, respectively, which contain the laslI or rhII promoter sequences fused to LVAgfp. Binding of activated LasR or RhlR to these promoters induces GFP production, which can be quantified by fluorescence and is proportional to the level of LasR or RhlR activation. LVAgfp is an unstable form of GFP with an estimated half-life of 40-60 min, which allows for a more real-time analysis of gene expression (wild-type GFP has a half-life of greater than 1 day). Further, this specific GFP is the variant GFPmut3b that has a shifted excitation maximum near 501 nm (wild-type GFP has an excitation maximum near 395 nm); emission maximum is similar to wild-type GFP at 511 nm (wild-type GFP has emission maximum near 508 nm). Utilizing this GFP variant is key to detection over native fluorescent pigments that are produced in P. aeruginosa and excite near 400 nm and emit near 500 nm. Preparation and analysis of the PAO1/plasI-LVAgfp and PAO1/prhII-LVAgfp reporters are outlined below.
# Compounds 7 and 21 were evaluated for their ability to modulate the Las and Rhl systems using the P. aeruginosa PAO1/plasI-LVAgfp and PAO1/prhII-LVAgfp reporters. We used the same exact setup as the static biofilm assay in 96-well microtiter plates for P. aeruginosa with the exception that freezer stocks were streaked on LB/agar with 300 μg/mL Carb. Microtiter plates were prepared similar to dose-response analysis such that final well concentrations upon inoculum addition ranged from 10^x μM where x=3.5, 3, 2.5, 2, 1.5, 1, 0, −1, or −2. Measurements of FL500/540 and OD600 were made at 12 and 24 h, and after 24 h the samples were evaluated for biofilm formation using the CV procedure. […]
# P. aeruginosa biofilm = assay: effects of metals on biofilm inhibition; details: compound at 250 μM; Cu(II)SO4, Fe(II)SO4, Fe(III)Cl3, Zn(II)SO4 up to 1000 μM; 24 h
# Procedure: Microtiter plates were first prepared by adding 50 μL aliquots of a 1 mM EtOH stock solution of 7 to each well in order to effect a final well concentration upon inoculum addition of 250 μM; this concentration was chosen as it is approximately the minimum concentration of 7 showing maximal biofilm inhibition. The EtOH was then removed by drying at 37° C., and the plates were sterilized. Directly prior to inoculation, 100 mM stock solutions of metals were freshly prepared in 18 MΩ H2O and diluted in series in a polypropylene 96-well microtiter plate (Costar 3879) to achieve stocks with the following concentrations: 100, 75, 50, 25, 12.5, 6.25, 1.25, 0.25, 0.05, and 0 mM. The choice of metals for evaluation was based on the results of the UV-Vis studies and included Cu(II)SO4, Fe(II)SO4.7H2O, Fe(III)Cl3.6H2O, and Zn(II)SO4.7H2O. Using a 10 μL multi-channel pipette, 2 μL aliquots of the metal stock solutions were added to the side of wells, avoiding contact with dried 7 on the bottom of the well. […] The highest metal:7 ratio obtained was 4:1 (1000 μM metal to 250 μM 7), which was assumed to be sufficient to see any mitigating effect based on our UV-Vis studies. […] All samples were tested in replicates of 3 wells and were assessed for biofilm production after 24 h incubation by CV staining and quantification.
structure (smiles),measurement,setting,value
"Cc1cc2nc(N)[nH]c2cc1C [Compound 21, 5,6-Dimethyl-2-aminobenzimidazole]",growth inhibition versus positive control,P. aeruginosa growth,greater than 20%
same,LasR activity,[1],significant reduction
same,inhibition of Las-QS system,[1],able to inhibit
"Nc1nc2ccccc2[nH]1 [Compound 7, 2-aminobenzimidazole]",LasR activity,[1],significant reduction
same,inhibition of Las-QS system,[1],able to inhibit
same,mitigating effect of metals on biofilm inhibitory activity,P. aeruginosa biofilm,none of the tested metals were able to mitigate the biofilm inhibitory activity; also recorded: observed no change in activity
